# System: keratosis pilaris
# Test: In-vivo study, patients with keratosis pilaris
# Conditions: topical use; arms, buttocks, thighs, and cheeks
# Excerpt: During use of the skin treatment formulations, the glycolic acid is configured to react with the top layer of skin, i.e., the stratum corneum, by breaking it down while dissolving sebum and other substances that bind dead tissue together. The dead skin cells produced when exposed to the glycolic acid may then be sloughed off with gentle exfoliation, which clears blocked pores and opens comedones to reveal smoother, brighter, younger-looking skin.
compound,measurement,value
O=C(O)CO [glycolic acid],skin appearance in keratosis pilaris patients,clearer and smoother skin

# Reference: patent US20180250314A1, “Skin Treatment System” (priority 2017, published 2018)
